# Measured values as given in patent US8952024B2, “Herbicidal pyrimidone derivatives” (E I du Pont de Nemours and Company, priority 2009, dated 2015).
# Tests used:
# Type in all cases: in vivo
# [1] = tested on: barnyardgrass (Echinochloa crus-galli); experiment: Test A pre-/postemergence plant response
# Outline: (§1)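 Each species was treated preemergence via directed soil spray and postemergence at the one- to two-leaf stage, with compounds formulated in a non-phytotoxic solvent plus surfactant. Visual injury relative to untreated controls was rated after about ten days on a 0–100 scale.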
# corn (Zea mays) = experiment: Test A pre-/postemergence plant response
# Outline: as §1
# [2] = tested on: giant foxtail (Setaria faberii); experiment: Test A pre-/postemergence plant response
# Outline: as §1
# [3] = tested on: large crabgrass (Digitaria sanguinalis); experiment: Test A pre-/postemergence plant response
# Outline: as §1
# [4] = tested on: morningglory (Ipomoea spp.); experiment: Test A pre-/postemergence plant response
# Outline: as §1
# [5] = tested on: pigweed (Amaranthus retroflexus); experiment: Test A pre-/postemergence plant response
# Outline: as §1
# [6] = tested on: velvetleaf (Abutilon theophrasti); experiment: Test A pre-/postemergence plant response
# Outline: as §1
# [7] = tested on: wheat (Triticum aestivum); experiment: Test A pre-/postemergence plant response
# Outline: as §1
# [8] = tested on: cocklebur (Xanthium strumarium); experiment: Test B pre-/postemergence plant response
# Outline: (§2)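 Greenhouse herbicide screen. Pre- and postemergence (1- to 4-leaf) spray of compound in solvent/surfactant mixture; loam–sand soil for pre, peat/vermiculite medium for post. Visual control rating 0–100 at 13 to 15 days after treatment.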
# [9] = tested on: giant foxtail (Setaria faberii); experiment: Test B pre-/postemergence plant response
# Outline: as §2
# [10] = tested on: green foxtail (Setaria viridis); experiment: Test B pre-/postemergence plant response
# Outline: as §2
# [11] = Postemergence, 125 g ai/ha, visual injury, 0 to 100 scale (0 no effect, 100 complete control), approx. ten days
# [12] = Postemergence, 500 g ai/ha, 0 to 100 scale, 0 = no effect, 100 = complete control, approx. ten days
# [13] = Preemergence, 125 g ai/ha, 0 to 100 scale, 0 = no effect, 100 = complete control
# [14] = Preemergence, 500 g ai/ha, visual injury, 0 to 100 scale (0 no effect, 100 complete control), approx. ten days
# [15] = 250 g ai/ha, Preemergence, 0 to 100 scale
# [16] = Postemergence, 31 g ai/ha, scale 0 to 100 (0 no effect, 100 complete control)
# [17] = Postemergence, 62 g ai/ha, scale 0 (no effect) to 100 (complete control), 13 to 15 days
# [18] = Postemergence, 125 g ai/ha, visual rating after 13 to 15 days, scale 0 (no effect) to 100 (complete control)
# [19] = Postemergence, 250 g ai/ha, scale 0 to 100
# [20] = Preemergence, 31 g ai/ha, scale 0 to 100 (0 no effect, 100 complete control)
# [21] = Preemergence, 62 g ai/ha, scale 0 to 100, 0 no effect, 100 complete control
# [22] = Preemergence, 125 g ai/ha, 0 to 100 scale
substance,measurement,setting,value
5-[(2-hydroxy-6-oxo-1-cyclohexen-1-yl)carbonyl]-3-phenyl-2-(3-pyridinyl)-4(3H)-pyrimidone [Compound 113],Barnyardgrass plant response rating,[1]; [11],30
same,"Plant response rating, Barnyardgrass",[1]; [12],70
same,"Plant response rating, Barnyardgrass",[1]; [13],0
same,"Plant response rating, Barnyardgrass",[1]; [14],10
same,Corn plant response rating,corn (Zea mays); [11],0
same,"Plant response rating, Corn",corn (Zea mays); [12],40
same,"Plant response rating, Corn",corn (Zea mays); [13],0
same,"Plant response rating, Corn",corn (Zea mays); [14],0
same,"Foxtail, Giant plant response rating",[2]; [11],40
same,"Plant response rating, Foxtail, Giant",[2]; [12],60
same,"Plant response rating, Foxtail, Giant",[2]; [13],0
same,"Plant response rating, Foxtail, Giant",[2]; [14],20
same,"Crabgrass, Large plant response rating",[3]; [11],50
same,"Plant response rating, Crabgrass, Large",[3]; [12],70
same,"Plant response rating, Crabgrass, Large",[3]; [13],0
same,"Plant response rating, Crabgrass, Large",[3]; [14],40
same,Morningglory plant response rating,[4]; [11],100
same,"Plant response rating, Morningglory",[4]; [12],100
same,"Plant response rating, Morningglory",[4]; [13],0
same,"Plant response rating, Morningglory",[4]; [14],40
same,Pigweed plant response rating,[5]; [11],80
same,"Plant response rating, Pigweed",[5]; [12],100
same,"Plant response rating, Pigweed",[5]; [13],10
same,"Plant response rating, Pigweed",[5]; [14],80
same,Velvetleaf plant response rating,[6]; [11],100
same,"Plant response rating, Velvetleaf",[6]; [12],100
same,"Plant response rating, Velvetleaf",[6]; [13],60
same,"Plant response rating, Velvetleaf",[6]; [14],100
same,Wheat plant response rating,[7]; [11],0
same,"Plant response rating, Wheat",[7]; [12],40
same,"Plant response rating, Wheat",[7]; [13],0
same,"Plant response rating, Wheat",[7]; [14],0
same,"Plant response rating, Cocklebur",[8]; [15],75
same,"Plant response rating, Cocklebur",[8]; [16],45
same,"Plant response rating, Cocklebur",[8]; [17],45
same,"Plant response rating, Cocklebur",[8]; [18],65
same,Cocklebur plant response rating,[8]; [19],70
same,"Plant response rating, Cocklebur",[8]; [20],0
same,"Plant response rating, Cocklebur",[8]; [21],0
same,Cocklebur plant response rating,[8]; [22],0
same,"Plant response rating, Foxtail, Giant",[9]; [15],25
same,"Plant response rating, Foxtail, Giant",[9]; [16],20
same,"Plant response rating, Foxtail, Giant",[9]; [17],55
same,"Plant response rating, Foxtail, Giant",[9]; [18],55
same,"Foxtail, Giant plant response rating",[9]; [19],60
same,"Plant response rating, Foxtail, Giant",[9]; [20],0
same,"Plant response rating, Foxtail, Giant",[9]; [21],0
same,"Foxtail, Giant plant response rating",[9]; [22],0
same,"Plant response rating, Foxtail, Green",[10]; [15],0
same,"Plant response rating, Foxtail, Green",[10]; [16],5
same,"Plant response rating, Foxtail, Green",[10]; [17],20
same,"Plant response rating, Foxtail, Green",[10]; [18],30
same,"Foxtail, Green plant response rating",[10]; [19],40
same,"Plant response rating, Foxtail, Green",[10]; [20],0
same,"Plant response rating, Foxtail, Green",[10]; [21],0
same,"Foxtail, Green plant response rating",[10]; [22],0
